Counter-ions that a name gives are not always drawn.
Key:
[1] = system: choline acetyltransferase (ChAT); experiment: Choline acetyltransferase (ChAT) activity in PC 12 cells; type: cell-based, rat; conditions: 1 mM, 6 days
Protocol: (§1) Rat pheochromocytoma ((PC 12) cells were grown in RPMI 1640, supplemented with 5% heat inactivated horse serum +5% heat inactivated fetal calf serum at 37° C. in humidified incubator with 5% CO2 atmosphere and fed on alternate days. At subconfluency, cells were dislodged by vigorous shaking and reseeded at 1:1 ratio. Acetyl L-carnitine ALCAR® and ST 857 were dissolved in RPMI and added to cells at the final concentrations indicated in the various experiments.
The method described by Fonnum, F. in "A rapid radiochemical method for the determination of choline acetyltransferase". J. of Neurochem. (1975) vol. 24, 407:409 was used. Briefly, the compounds were added to the culture medium at final concentration of 1 mM.
The cells were grown for 6 days in the presence of ST 857. The medium was changed every other day. On the sixth day the cells were harvested and resuspended directly in a homogenization buffer for ChAT activity assay. Protein content was assayed on an aliquot of the cell suspensions.

PC 12 cells = experiment: Neurite outgrowth experiment; type: cell-based, rat
Protocol: The rat pheochromocytoma (PC 12) cell line was chosen as an in vitro model system for NGF-responsive neurons. PC 12 cells are a cell line derived from a tumor of rat adrenal medulla that display NGFR similar to those described for sympathetic and sensory neurons, PC 12 typically respond to NGF by elongating neurites and developing into electrically excitable cells featuring some characteristics of the post-mitotic cholinergic neuronal phenotype.
as §1
PC 12 cells were plated out into 35 mm Petri dishes at a density 2×10^5 cells/ml. On the sixth day of either ALCAR® or ST 857 treatment (1 mM), the cells were added with NGF dissolved in RPMI 1640 at a suboptimal concentration (i.e. ineffective to stimulate neurite outgrowth) of 1 ng/mL (0.037 nM). On day 5 after addition, 100-120 cells from 5-12 randomly chosen microscope fields were counted and assayed for presence of neurities. […]

Tolerability, LD50 = conditions: mouse, in vivo, mice
Protocol: In mice, LD50 orally is higher than 2 g/kg; LD50 intraperitoneally is higher than 600 mg/kg.

HCN-1A cells = experiment: Effect on cultured human cortical cell line (HCN-1A); type: cell-based
Text: (§2) The HCN-1A cells are a non-tumoral cell line derived from human cortical neuroblasts which respond to NGF by differentiating into bipolar or multipolar neurite-bearing neurons.
HCN-1A cells show immunoreactivity for different neurotransmitters such as GABA, glutamate, somatostatin, cholccystokinin-8 […] and VIP (vasoactive intestinal polypeptide).

NGFR mRNA = NGFR mRNA in HCN-1A cells; type: cell-based, human; conditions: following ST 857 treatment
Text: as §2

[2] = Tolerability, intraperitoneal or oral; type: in vivo
[3] = in the presence of NGF (10 ng/mL)

Row | SMILES | ChAT activity ([1]; in the absence of NGF) [nmoli ACh/mg/hour] | ChAT activity [1, 3] [nmoli ACh/mg/hour] | enhancement of the action of NGF on PC 12 cells (PC 12 cells; compared with ALCAR® treatment) | stimulation of neurite outgrowth (in words) (PC 12 cells; in the absence of NGF) | LD50 (Tolerability, LD50; ip, intraperitoneally) [mg/kg] | LD50 (Tolerability, LD50; po, orally) [mg/kg] | neurite outgrowth and cell differentiation (HCN-1A cells; 1 mM) | GABA immunoreactivity and formation of functional synapses (HCN-1A cells; in the presence and in the absence of NGF (10 ng/ml)) | NGFR mRNA (NGFR mRNA) | tolerability [2]
1 | CC(=O)O[C@H](CC(=O)[O-])C[N+](C)(C)C [ACETYL L-CARNITINE, acetyl L-carnitine, reference compound] | 33.3 ± 4.2 | 133.3 ± 4.4 | – | – | – | – | – | – | – | –
2 | CC(=O)O[C@H](CC(=O)N[C@@H](CCCNC(=N)N)C(=O)O)C[N+](C)(C)C [ST 857, L-acetyl L-carnitinamide of L-arginine chloride hydrochloride] | 46.6 ± 2.5 | 140.0 ± 8.9 | enhanced by ST 857 treatment more potently than by ALCAR® treatment | effective in stimulating neurite outgrowth, even in the absence of NGF | > 600 | > 2000 | resulted in neurite outgrowth and cell differentiation toward the neuronal phenotype | induced also GABA immunoreactivity in HCN-1A and formation of functional synapses | increased in these cells following ST 857 treatment, in a manner similar to that elicited by NGF | well tolerated
